Values quoted from earlier work as cited in patent US8034921B2, “IRNA agents targeting CCR5 expressing cells and uses thereof” (Alnylam Pharmaceuticals, Inc., priority 2006, dated 2011).
Read-outs that look alike come from different tables or passages of the source. Each block holds one compound with its values, some of them ahead of it.

How the values were obtained:
[1] = tested on: HIV-infected patients
[2] = in vivo
[3] = molecular target: T1, CCR5 (Homo sapiens, UniProt P51681); parameters: expressed in transfected cells; host or cells: CHO cells; details: CHO cells expressing recombinant human CCR5
T1 sequence (P51681 whole entry): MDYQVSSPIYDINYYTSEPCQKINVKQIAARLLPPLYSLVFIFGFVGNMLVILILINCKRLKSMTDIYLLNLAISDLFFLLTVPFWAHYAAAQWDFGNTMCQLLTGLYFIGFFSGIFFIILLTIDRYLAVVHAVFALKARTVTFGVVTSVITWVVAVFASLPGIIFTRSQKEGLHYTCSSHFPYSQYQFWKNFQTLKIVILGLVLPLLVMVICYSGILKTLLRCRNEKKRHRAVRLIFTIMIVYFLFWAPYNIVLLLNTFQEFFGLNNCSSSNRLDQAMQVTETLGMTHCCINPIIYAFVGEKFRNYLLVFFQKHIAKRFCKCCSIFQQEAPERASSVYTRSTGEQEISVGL

[4] = molecular target: T1, CCR5; parameters: expressed in transfected cells; host or cells: CHO cells; details: membranes from CHO cells stably expressing recombinant human CCR5; read-out: IC50, binding of [125I]RANTES
[5] = molecular target: T1, CCR5; parameters: expressed in transfected cells; host or cells: CHO cells; details: CCR5-expressing CHO cells; read-out: IC50, inhibition of [125I]RANTES binding
[6] = healthy volunteers
[7] = rodents
[8] = molecular target: HIV-1 gp120/CCR5 (Homo sapiens, UniProt P51681); details: read-out: IC50, HIV-1 gp120/CCR5 binding
HIV-1 gp120/CCR5, sequence (P51681 whole entry): as above

[9] = tested on: R5 HIV-1 isolates
[10] = molecular target: cyano CCR5 (Macaca fascicularis, UniProt P61814); details: cyano CCR5, transfected CHO cell membranes; read-out: IC50, CCR5 binding against [125I]MI-1α
[11] = molecular target: T1, CCR5; details: read-out: IC50, inhibition of [125I]MIP-1α binding

- bioavailability [2]: 100%
SMILES: COC[C@@H](c1ccc(C(F)(F)F)cc1)N1CCN(C2(C)CCN(C(=O)c3c(C)ncnc3C)CC2)C[C@@H]1C [Compound 1]
- viral load ([1]; 48 HIV-infected patients, phase I): dose-dependent reduction in viral load
- cardiovascular side effects ([1]; human, in vivo): no cardiovascular side effects

- IC50 for inhibition of CCL3 and CCL5 binding [3]: sub-nanomolar range
SMILES: CCN(C(=O)Cc1ccc(S(C)(=O)=O)cc1)C1CCN(C(C)CC(NC(=O)OC2CCOCC2)c2ccccc2)CC1 (stereo not shown) [Compound 3]

- IC50 [4]: < 10 nM
SMILES: CCN(C(=O)Cc1ccc(S(=O)(=O)N(C)C)cc1)C1CCN(CCC(c2ccccc2)c2ccccc2)CC1 [Compound 5b]

- IC50 [4]: 49 nM
SMILES: CCN(C(=O)Nc1ccc(S(C)(=O)=O)cc1)C1CCN(CCC(c2ccccc2)c2ccccc2)CC1 [Compound 7]

- IC50 [5]: 3.4 nM
SMILES: CS(=O)(=O)N1CCC(C(=O)N(CCCN2CCC(Cc3ccc(S(N)(=O)=O)cc3)CC2)c2ccc(Cl)c(Cl)c2)CC1 [Compound 9a]

- IC50 [5]: 1.5 nM
SMILES: CNS(=O)(=O)c1ccc(CC2CCN(CCCN(C(=O)C3CCN(S(C)(=O)=O)CC3)c3ccc(Cl)c(Cl)c3)CC2)cc1 [Compound 9b]

- IC50 [5]: 1.2 nM
SMILES: CN(C)S(=O)(=O)c1ccc(CC2CCN(CCCN(C(=O)C3CCN(S(C)(=O)=O)CC3)c3ccc(Cl)c(Cl)c3)CC2)cc1 [Compound 9c]

- IC50 [5]: 1.3 nM
SMILES: CS(=O)(=O)N1CCC(C(=O)N(CCCN2CCC(Cc3ccc(S(=O)(=O)N4CCOCC4)cc3)CC2)c2ccc(Cl)c(Cl)c2)CC1 [Compound 9d]

SMILES: CCCCN1C(=O)C(CC2CCCCC2)NC(=O)C12CCN(Cc1ccc3c(c1)OCCO3)CC2 (stereo not shown) [Compound 13]
- QTc prolongation [6]: some incidents of QTc prolongation
- serious adverse events [6]: No serious adverse events
- tolerated dose ([6]; multiple dosing twice a day): 800 mg
- tolerated dose ([6]; single dose): 1200 mg
- oral bioavailability [7]: favorable
- IC50 [8]: 1 nM
- activity against a wide range of R5 HIV-1 isolates [9]: potent activity

- IC50 [5]: 1 nM
SMILES: O=C(Nc1ccc(Cl)cc1)N(CCCN1CCC(Cc2ccc(S(=O)(=O)N3CCOCC3)cc2)CC1)c1ccccc1 [Compound 15]

- IC50 [5]: 27 nM
SMILES: CCCCOCCOc1ccc(-c2ccc3c(c2)C=C(C(=O)Nc2ccc(CN(C)C4CCOCC4)cc2)CCS3(=O)=O)cc1 [Compound 17a]

- IC50 [5]: 3.6 nM
SMILES: CCCCOCCOc1ccc(-c2ccc3c(c2)C=C(C(=O)Nc2ccc(CN(C)C4CCOCC4)cc2)CCN3CC(C)C)cc1 [Compound 17b]

SMILES: Cc1cccc(C)c1C(=O)N1CCC(C)(N2CCC(N(Cc3ccccc3)c3ccccc3)CC2)CC1 [Compound 19]
- IC50 [10]: 0.7 nM

- IC50 [11]: 4.4 nM
SMILES: C=CCN(C(=O)OCc1ccc([N+](=O)[O-])cc1)C1CCN(CCC(C)(CN(C)S(=O)(=O)c2ccccc2)c2ccccc2)CC1 (stereo not shown) [Compound 21]
